Measurements taken from patent US20180086749A1, “INHIBITORS OF VIRUSES” (priority 2015, published 2018).
“And” between values parts separate entries of the source, which are not always exact repeats. Equal values may be shown once. Read-outs that look alike come from different tables or passages of the source.

How the values were obtained:
CHIKV (S27 strain) = CHIKV (S27 strain) CPE assay; type: cell-based, Chikungunya virus
VEEV (TC83 strain) = experiment: microbe, parasite or virus in culture; type: cell-based, Venezuelan equine encephalitis virus
[1] = system: host gene expression in HEp-2 cells; experiment: DNA microarray host gene expression; type: cell-based, Human; details: 5 μM, 18 hours
YFV 17D = type: cell-based, Yellow Fever virus
LCMV-ARM = type: cell-based, Lymphocytic Choriomeningitis Virus
[2] = system: VEEV TrD (Trinidad donkey); type: cell-based, Venezuelan equine encephalitis virus
Influenza virus A (H1N1) = type: cell-based
CHIKV S27 = type: cell-based, Chikungunya virus; details: 5 μM
in vitro = details: African green monkey
pVSV-luc = experiment: microbe, parasite or virus in culture; type: cell-based, Vesicular stomatitis virus
VEEV V3526-luc = experiment: microbe, parasite or virus in culture; type: cell-based, Venezuelan equine encephalitis virus; details: Venezuelan equine encephalitis virus
[3] = Tables 7-10, read-out: CHIKV (S27 strain) CPE Assay Potency mean EC50
[4] = read-out: VEEV (TC83 strain) CPE Assay Potency mean EC50
[5] = Chikungunya virus, read-out: CHIKV EC50
[6] = Venezuelan equine encephalitis virus, read-out: VEEV EC50

O=C(Cc1cccs1)Nc1nc2c(s1)CCCC2 [Entry 1]
EC50 (CHIKV (S27 strain); [3]): 4.9 µM | CC50 (Vero 76 cells): > 50 µM | EC50 (VEEV (TC83 strain); [4]): 5.1 µM

Cc1ccc(C)c(CC(=O)N(C)c2nc3c(s2)CCCC3)c1 [Entry 13]
EC50 (CHIKV (S27 strain); [3]): 8.9 µM | CC50 (Vero 76 cells): > 50 µM | EC50 (VEEV (TC83 strain); [4]): 11.7 µM

CCOc1ccccc1CC(=O)N(c1nc2c(s1)CCCC2)C1CCOCC1 [Entry 15]
EC50 (CHIKV (S27 strain); [3]): > 50 µM | CC50 (Vero 76 cells): > 50 µM | EC50 (VEEV (TC83 strain); [4]): 12.5 µM

Cc1csc(CC(=O)N(C)c2nc3c(s2)CCCC3)c1 [Entry 30]
EC50 (CHIKV (S27 strain); [3]): 0.09 µM | CC50 (Vero 76 cells): 36.4 µM | EC50 (VEEV (TC83 strain); [4]): 0.02 µM

O=C(Cc1ccccn1)N(c1ccccc1)c1nc2c(s1)CCCC2 [Entry 25]
EC50 (CHIKV (S27 strain); [3]): > 50 µM | CC50 (Vero 76 cells): 33.2 µM | EC50 (VEEV (TC83 strain); [4]): > 50 µM

Cc1ccc(CC(=O)N(C)c2nc3c(s2)CCCC3)cc1 [Entry 12]
EC50 (CHIKV (S27 strain); [3]): 4.1 µM | CC50 (Vero 76 cells): > 50 µM | EC50 (VEEV (TC83 strain); [4]): 0.9 µM

CCOc1ccc(CC(=O)N(C)c2nc3c(s2)CCCC3)cc1 [Entry 8]
EC50 (CHIKV (S27 strain); [3]): > 50 µM | CC50 (Vero 76 cells): > 50 µM | EC50 (VEEV (TC83 strain); [4]): > 50 µM

Cc1ccccc1CC(=O)N(C)c1nc2c(s1)CCCC2 [Entry 10]
EC50 (CHIKV (S27 strain); [3]): 3.6 µM | CC50 (Vero 76 cells): > 50 µM | EC50 (VEEV (TC83 strain); [4]): 1 µM

O=C(Cc1cccs1)N(c1ccccc1)c1nc2c(s1)CCCC2 [CB10002623]
GBP2 expression upregulation [1]: 3.5 | IFI44 expression upregulation [1]: 2.83 | IFIT1 expression upregulation [1]: 2.3 | IRF9 expression upregulation [1]: 2.4 | ISG20 expression upregulation [1]: 2.85 | OASL expression fold increase [1]: 3.76 fold | expression of IFN-ε [1]: decreased in half | RIG-I expression fold increase ([1]; vs DMSO): 4.63 fold

CCOc1ccccc1CC(=O)N(c1nccs1)c1nc2c(s1)CCCC2 [Entry 23]
EC50 (CHIKV (S27 strain); [3]): > 50 µM | CC50 (Vero 76 cells): > 50 µM | EC50 (VEEV (TC83 strain); [4]): > 50 µM

O=C(Cc1ccccc1C(F)(F)F)N(c1ccccc1)c1nc2c(s1)CCCC2 [Entry 19]
EC50 (CHIKV (S27 strain); [3]): 1.2 µM | CC50 (Vero 76 cells): > 50 µM | EC50 (VEEV (TC83 strain); [4]): 1.2 µM

O=C(Cc1ccc(Br)s1)N(c1ccccc1)c1nc2c(s1)CCCC2 [Entry 27]
EC50 (CHIKV (S27 strain); [3]): 0.05 µM | CC50 (Vero 76 cells): 17.2 µM | EC50 (VEEV (TC83 strain); [4]): 0.02 µM

Cc1csc(CC(=O)N(C)c2nc3c(s2)CCCC3)c1 [C]
Log titer reduction at 5 μM (YFV 17D): 2.588 log | Log titer reduction at 5 μM (LCMV-ARM): 3.014 log | Log titer reduction at 5 μM [2]: 3.741 log | Log titer reduction at 5 μM (Influenza virus A (H1N1)): 3.075 log | Log titer reduction at 5 μM (CHIKV S27): 3.62 log

O=C(Cc1ccco1)N(c1ccccc1)c1nc2c(s1)CCCC2 [Entry 26]
EC50 (CHIKV (S27 strain); [3]): 8.2 µM | CC50 (Vero 76 cells): 25.8 µM | EC50 (VEEV (TC83 strain); [4]): 6.8 µM

COc1csc(CC(=O)N(C)c2nc3c(s2)CCCC3)c1 [Entry 31]
EC50 (CHIKV (S27 strain); [3]): 0.14 µM | CC50 (Vero 76 cells): 36.1 µM | EC50 (VEEV (TC83 strain); [4]): 0.05 µM

CCOc1ccccc1CC(=O)N(c1nc2c(s1)CCCC2)c1ccccc1OC [Entry 20]
EC50 (CHIKV (S27 strain); [3]): > 50 µM | CC50 (Vero 76 cells): > 50 µM | EC50 (VEEV (TC83 strain); [4]): > 50 µM

CCOc1ccccc1NC(=O)N(c1ccccc1)c1nc2c(s1)CCCC2
CC50 (in vitro; CC50): > 50 µM | EC50 (CHIKV (S27 strain); [5]): 12.2 µM | EC50 (VEEV (TC83 strain); [6]): 10 µM

COc1ccccc1CC(=O)N(C)c1nc2c(s1)CCCC2 [D]
Log titer reduction at 5 μM [2]: 2.716 log | Log titer reduction at 5 μM (CHIKV S27): 2.182 log

CN(C(=O)Cc1cc(F)cs1)c1nc2c(s1)CCCC2 [Entry 32]
EC50 (CHIKV (S27 strain); [3]): 10.2 µM | CC50 (Vero 76 cells): 22.5 µM | EC50 (VEEV (TC83 strain); [4]): 5.1 µM

CCOc1ccccc1CC(=O)N(C)c1nc2c(s1)CCCC2 [E]
Log titer reduction at 5 μM [2]: 3.411 log | Log titer reduction at 5 μM (CHIKV S27): 3.161 log

CC[C@@]1([C@@H]2O[C@@H]([C@H]3O[C@@](O)(CO)[C@H](C)C[C@@H]3C)C[C@@H]2C)CC[C@H]([C@]2(C)CC[C@]3(C[C@H](O)[C@@H](C)[C@@H]([C@@H](C)[C@@H](OC)[C@H](C)C(=O)O)O3)O2)O1 [Monensin, monensin, reference compound]
EC50 (pVSV-luc; Vesicular stomatitis virus, N2a, read-out: EC50 pVSV-Gp): 0.22 µM | EC50 (pVSV-luc; Vesicular stomatitis virus, read-out: EC50 values range): 0.17 to 0.56 µM | EC50 (pVSV-luc; read-out: EC50 pVSV-Gp): 0.19 µM | EC50 (VEEV V3526-luc; N2a, read-out: EC50 V3526-luc): 0.25 µM | EC50 (VEEV V3526-luc; NIH3T3, read-out: EC50 V3526-luc): 0.02 µM | EC50 (VEEV V3526-luc; Vero 76, read-out: EC50 V3526-luc): 3.87 µM | EC50 (VEEV V3526-luc; read-out: EC50 V3526-luc): 0.02 µM | EC50 (VEEV V3526-luc; read-out: EC50 values range): 0.02 to 0.25 µM

CCOc1ccccc1CC(=O)N(c1nc2c(s1)CCCC2)C(C)C [Entry 14]
EC50 (CHIKV (S27 strain); [3]): > 50 µM | CC50 (Vero 76 cells): > 50 µM | EC50 (VEEV (TC83 strain); [4]): 15.9 µM

O=C(Cc1sccc1Br)N(c1ccccc1)c1nc2c(s1)CCCC2 [G]
Log titer reduction at 5 μM [2]: 4.754 log | Log titer reduction at 5 μM (CHIKV S27): 5.179 log

CCOc1ccccc1CC(=O)N(c1ccc(OC)cc1)c1nc2c(s1)CCCC2 [Entry 22]
EC50 (CHIKV (S27 strain); [3]): > 50 µM | CC50 (Vero 76 cells): > 50 µM | EC50 (VEEV (TC83 strain); [4]): 4.6 µM

CCOc1ccccc1C1CCN(c2nc3c(s2)CCCC3)C1=O (stereo not drawn)
CC50 (in vitro; CC50): > 50 µM | EC50 (CHIKV (S27 strain); [5]): > 50 µM | EC50 (VEEV (TC83 strain); [6]): 4.5 µM

CN(C(=O)Cc1sccc1F)c1nc2c(s1)CCCC2 [Entry 33]
CC50 (in vitro; VERO Cell Cytotoxicity Assay mean CC50): 41.4 µM | EC50 (CHIKV (S27 strain); Chikungunya virus, Tables 7-10, read-out: CHIKV (S27 strain) CPE Assay Potency mean EC50): 0.3 µM | EC50 (VEEV (TC83 strain); Venezuelan equine encephalitis virus, read-out: VEEV (TC83 strain) CPE Assay Potency mean EC50): 0.4 µM

CN(C(=O)Cc1sccc1F)c1nc2c(s1)CCCC2 [B]
Log titer reduction at 5 μM (YFV 17D): 2.32 log | Log titer reduction at 5 μM (LCMV-ARM): 3.466 log | Log titer reduction at 5 μM [2]: 4.768 log | Log titer reduction at 5 μM (Influenza virus A (H1N1)): 4.949 log | Log titer reduction at 5 μM (CHIKV S27): 4.024 log

Cc1ccc(CC(=O)N(c2ccccc2)c2nc3c(s2)CCCC3)s1 [Entry 29]
EC50 (CHIKV (S27 strain); [3]): 0.11 µM | CC50 (Vero 76 cells): 7.8 µM | EC50 (VEEV (TC83 strain); [4]): 0.03 µM

CCOc1ccccc1CC(=O)N(c1cccnc1)c1nc2c(s1)CCCC2 [Entry 24]
EC50 (CHIKV (S27 strain); [3]): 10.6 µM | EC50 (VEEV (TC83 strain); [4]): 2.5 µM

COc1ccccc1CC(=O)N(c1ccccc1)c1nc2c(s1)CCCC2 [Entry 17]
EC50 (CHIKV (S27 strain); [3]): 0.5 µM | CC50 (Vero 76 cells): > 50 µM | EC50 (VEEV (TC83 strain); [4]): 0.7 µM

COc1ccccc1CC(=O)N(c1ccccc1)c1nc2c(s1)CCCC2 [F]
Log titer reduction at 5 μM [2]: 3.198 log | Log titer reduction at 5 μM (CHIKV S27): 2.495 log

Cc1cccc(CC(=O)N(C)c2nc3c(s2)CCCC3)c1 [Entry 11]
EC50 (CHIKV (S27 strain); [3]): 2.8 µM | CC50 (Vero 76 cells): > 50 µM | EC50 (VEEV (TC83 strain); [4]): 1.3 µM

COCc1ccccc1CC(=O)N(C)c1nc2c(s1)CCCC2 [Entry 9]
EC50 (CHIKV (S27 strain); [3]): 9.3 µM | CC50 (Vero 76 cells): > 50 µM | EC50 (VEEV (TC83 strain); [4]): 9.1 µM

CN(C(=O)Cc1sccc1C(F)(F)F)c1nc2c(s1)CCCC2 [Entry 34]
EC50 (CHIKV (S27 strain); [3]): > 50 µM | CC50 (Vero 76 cells): 6.4 µM

CCOc1ccccc1CC(=O)N(CCOC)c1nc2c(s1)CCCC2 [Entry 16]
EC50 (CHIKV (S27 strain); [3]): 10.9 µM | CC50 (Vero 76 cells): > 50 µM | EC50 (VEEV (TC83 strain); [4]): 10.9 µM

CCOc1ccccc1CC(=O)N(c1cccc(OC)c1)c1nc2c(s1)CCCC2 [Entry 21]
EC50 (CHIKV (S27 strain); [3]): 4.1 µM | CC50 (Vero 76 cells): > 50 µM | EC50 (VEEV (TC83 strain); [4]): 1.7 µM

CN(C(=O)Cc1ccc(C(F)(F)F)s1)c1nc2c(s1)CCCC2 [Entry 35]
EC50 (CHIKV (S27 strain); [3]): > 50 µM | CC50 (Vero 76 cells): > 50 µM | EC50 (VEEV (TC83 strain); [4]): > 50 µM

O=C(Cc1sccc1Br)N(c1ccccc1)c1nc2c(s1)CCCC2 [Entry 28]
EC50 (CHIKV (S27 strain); [3]): 0.05 µM | CC50 (Vero 76 cells): 22.4 µM | EC50 (VEEV (TC83 strain); [4]): 0.02 µM

O=C(Cc1cccs1)Nc1nc2c(s1)CCCC2 [A]
Log titer reduction at 5 μM (LCMV-ARM): 0.085 log | Log titer reduction at 5 μM [2]: 1.765 log | Log titer reduction at 5 μM (Influenza virus A (H1N1)): 4.949 log | Log titer reduction at 5 μM (CHIKV S27): 0.61 log and 0.612 log
